Results as given in patent publication US20120270237A9, “METHODS FOR THE IDENTIFICATION OF KINASE INTERACTING MOLECULES AND FOR THE PURIFICATION OF KINASE PROTEINS” (Cellzone AG, priority 2009, published 2012).

Tests used:
SYK = SYK (Homo sapiens, UniProt P43405); assay: Kinobeads competition binding, HL60 cell lysate; set-up: capturing and identification of kinases from mixed HeLa placenta lysates; endogenous in cells; conditions: 10 μM free compound
Method: To one aliquot of cell lysate 10 μM of the free compound (FIG. 3, CZC31326) was added and allowed to bind to proteins in the lysate. Then the affinity matrix with the immobilized compound (Example 1) was added to capture proteins that were not interacting with the previously added free compound. Beads were separated from the lysate and bead bound proteins were eluted in SDS sample buffer and subsequently separated by SDS-Polyacrylamide gel electrophoresis (FIG. 4). Suitable gel bands were cut out and subjected to in-gel proteolytic digestion with trypsin. The second lysate aliquot was processed identically, however no free compound was added (DMSO solvent control). Peptides originating from samples 1 and 2 were labeled with iTRAQ reagents (iTRAQ 114 and iTRAQ 117) and the combined samples were analyzed with a nano-flow liquid chromatography system coupled online to a tandem mass spectrometer (LC-MS/MS) experiment followed by iTRAQ reporter ion quantification in the MS/MS spectra (Ross et al., 2004. Mol. Cell. Proteomics 3(12):1154-1169). […] The iTRAQ reagents are a set of multiplexed, amine-specific, stable isotope reagents that can label peptides on amino groups in up to four different biological samples enabling simultaneous identification and quantitation of peptides. […]

JNK1 = JNK1 (Homo sapiens, UniProt P45983); assay: Kinobeads competition binding, HeLa Placenta lysate mix; set-up: Identified kinases from HeLa Placenta lysate mix with CZC31326; endogenous in cells; host or cells: HeLa cell lysate mixed with placenta tissue lysate; conditions: 10 μM free compound
Method: To one aliquot of cell lysate 10 μM of the free compound (FIG. 3, CZC31326) was added and allowed to bind to proteins in the lysate. Then the affinity matrix with the immobilized compound was added to capture proteins that were not interacting with the previously added free compound. Beads were separated from the lysate and bead bound proteins were eluted in SDS sample buffer and subsequently separated by SDS-Polyacrylamide gel electrophoresis (FIG. 10). Suitable gel bands were cut out and subjected to in-gel proteolytic digestion with trypsin. The second lysate aliquot was processed identically, however no free compound was added (DMSO solvent control). Peptides originating from samples 1 and 2 were labeled with iTRAQ reagents (iTRAQ 114 and iTRAQ 117) and the combined samples were analyzed with a nano-flow liquid chromatography system coupled online to a tandem mass spectrometer (LC-MS/MS) experiment followed by iTRAQ reporter ion quantification in the MS/MS spectra as described in Example 2.

JNK1, sequence (P45983 whole entry): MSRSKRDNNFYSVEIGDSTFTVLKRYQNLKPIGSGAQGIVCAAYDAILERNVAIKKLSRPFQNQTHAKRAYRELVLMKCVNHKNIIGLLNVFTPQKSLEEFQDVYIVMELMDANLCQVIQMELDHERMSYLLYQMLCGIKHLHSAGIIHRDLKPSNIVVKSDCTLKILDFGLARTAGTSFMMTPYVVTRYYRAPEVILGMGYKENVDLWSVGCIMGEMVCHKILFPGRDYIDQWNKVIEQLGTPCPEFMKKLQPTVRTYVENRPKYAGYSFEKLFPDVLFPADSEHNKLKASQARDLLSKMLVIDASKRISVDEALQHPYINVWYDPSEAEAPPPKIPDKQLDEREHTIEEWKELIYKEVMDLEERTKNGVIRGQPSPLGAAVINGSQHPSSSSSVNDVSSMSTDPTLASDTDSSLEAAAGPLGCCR

`CS(=O)(=O)Nc1ccccc1Nc1nc(Nc2cccc(OCCN)c2)ncc1Cl` [CZC31326, N-(2-(2-(3-(2-aminoethoxy)phenylamino)-5-chloropyrimidin-4-ylamino)phenyl)methanesulfonamide] showed a Competition % (SYK) of 95.6% and a Competition % (JNK1) of 85%.
